From patent US20110263696A1, “PROANTHOCYANIDINS FROM CINNAMON AND ITS WATER SOLUBLE EXTRACT INHIBIT TAU AGGREGATION” (priority 2007, published 2011)

How the values were obtained:
tau187 [1] = biological target: T1, tau187 (Homo sapiens, UniProt P10636); assay: Electron microscopy of tau187 fibers; format: biochemical; details: 100 uM CA, 5 hrs of aggregation
T1 construct: his; made in house; host or cells: bacteria
Experimental: FIG. 6. […] Aggregation of tau^187 (50 uM) was initiated with heparin (0.1 mg/ml) in 20 mM NaPO4, pH 7.0. in the presence of: no proanthocyanidin (left panel), or 200 uM purified A-type trimer (right panel). Scale: Bars=500 nm
FIG. 13. Effect of oxidized cinnamon on tau filament formation. […] Left panel: no cinnamon; right panel 10 μM oxidized cinnamon.
FIG. 15A. […] 50 μM Tau^187 was incubated with 0.11 mg/ml heparin (18 kDa) at 23° C. Aggregation was monitored by turbidity (OD350). Cinnamaldehyde was present at a final concentration of 0, 50 and 100 μM. FIG. 15B. Electron microscopy of tau fibers in the presence of cinnamaldehyde (CA). Tau fibers were visualized by electron microscopy after 5 hrs of aggregation in the presence of: 0 CA (left panel); B) 100 uM CA (right panel). […] FIG. 15 C. Trans-cinnamaldehyde chemical structure.
Two hexapeptide motifs in tau are critical for tau aggregation and fiber formation (see, e.g. von Bergen et al., Proc Nad Acad Sci USA 97, 5129-34 (2000)). These motifs lie in the first and second inter-repeat regions of the MT binding domain (FIG. 5), and it is known that engineered truncation fragments of tau that contain these motifs often undergo aggregation into fibers even more efficiently than the full-length molecule (see, e.g. Barghorn et al., Biochemistry 41, 14885-96 (2002)). […]

tau187 [2] = biological target: T1, tau187; assay: Turbidity (OD350) assay of heparin-induced aggregation, tau187; format: biochemical; details: cinnamaldehyde 50 and 100 uM; tau187 50 uM, heparin 0.11 mg/ml, 23 C
Experimental: FIG. 15A. […] 50 μM Tau^187 was incubated with 0.11 mg/ml heparin (18 kDa) at 23° C. Aggregation was monitored by turbidity (OD350). Cinnamaldehyde was present at a final concentration of 0, 50 and 100 μM. FIG. 15B. Electron microscopy of tau fibers in the presence of cinnamaldehyde (CA). Tau fibers were visualized by electron microscopy after 5 hrs of aggregation in the presence of: 0 CA (left panel); B) 100 uM CA (right panel). […] FIG. 15 C. Trans-cinnamaldehyde chemical structure. FIG. 16A. […] 50 uM tau187 was incubated with 0.11 mg/mL heparin (18 kDa) at 23° C. Epicatechin was untreated, treated with 10 mM NH4OH for 10 min at 95° C. then neutralized, or treated with 100 U of mushroom tyrosinase (Sigma) for 10 min. Epicatechin was added to the reaction at a final concentration of 25 uM. Fiber formation was monitored by OD 350. FIG. 16B. epicatechin and catechin chemical structures. FIG. 17A. HPLC analysis of proanthocyanidin A-type trimer, A) purified or B) in whole cinnamon extract. The trimer corresponds to the major peak at ˜40 min. Areas underneath the peaks in panels A and B each correspond to 6150 pmoles. […] Fiber formation was monitored by OD 350. Concentrations of A-trimer in pure form and in whole cinnamon extract (CE) were normalized by absorbance measurements of the A-trimer resolved by HPLC. […]

tau polypeptides = assay: Light scattering measurements (absorbance at 350 nm) of tau aggregation; format: biochemical, human
Experimental: FIG. 11. Dose response of cinnamon (oxidized) on tau aggregation. […] In this experiment, cinnamon was incubated overnight in 10 mM NH4OH.
FIG. 12. Effect of cinnamon A trimer on light scattering of tau.
In one illustrative embodiment of the invention, the effects of cinnamon extract or purified cinnamon proanthocyanidins on tau aggregation can be followed readily in a spectrophotometer by measuring the change in absorbance at 350 nm. The association of tau promoted by heparin causes an increase in absorbance. […] Different buffers and temperatures may be used if desired to study factor influencing aggregation.

[3] = literature; cited from earlier work
tau = details: literature; cited from earlier work

T1 sequence (P10636 572-758 limits assumed): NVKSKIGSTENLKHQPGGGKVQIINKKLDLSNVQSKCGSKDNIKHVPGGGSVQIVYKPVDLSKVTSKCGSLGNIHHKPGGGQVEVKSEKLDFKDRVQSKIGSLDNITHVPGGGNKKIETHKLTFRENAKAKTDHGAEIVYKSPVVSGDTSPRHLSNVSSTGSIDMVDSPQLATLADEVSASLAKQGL

O=C/C=C/c1ccccc1 [cinnamaldehyde, Trans-cinnamaldehyde]
Tau fiber density by EM (tau187 [1]): dramatically reduced
Inhibition of tau187 aggregation (turbidity OD350) (tau187 [2]): Inhibition of tau aggregation

Oc1cc(O)c2c(c1)O[C@H](c1ccc(O)c(O)c1)[C@H](O)[C@H]2c1c(O)cc(O)c2c1O[C@H](c1ccc(O)c(O)c1)[C@H](O)C2 [cinnamon proanthocyanidin B2, proanthocyanidin B2]
Inhibition of tau aggregation by light scattering (tau polypeptides): inhibits the aggregation

Oc1cc(O)c2c(c1)O[C@H](c1ccc(O)c(O)c1)[C@H](O)C2 [epicatechin]
Brain permeability after oral ingestion [3]: brain-permeable

O=C(O[C@@H]1Cc2c(O)cc(O)cc2O[C@@H]1c1cc(O)c(O)c(O)c1)c1cc(O)c(O)c(O)c1 [epigallocatechin gallate]
Inhibition of tau aggregation (published studies) (tau): effectively inhibit tau aggregation

Oc1cc(O)c2c(c1)O[C@H](c1ccc(O)c(O)c1)[C@H](O)[C@H]2c1c(O)cc(O)c2c1O[C@H](c1ccc(O)c(O)c1)[C@@H](O)C2 [proanthocyanidin dimer B1]
Inhibition of tau aggregation (published studies) (tau): effectively inhibit tau aggregation
